Assay [1] deals with PC3 cells. The experiment in a line: Tumor cell invasion across Matrigel-coated Transwell inserts. It counts as cell-based, human. The following applies: for effect on tumor cell invasion in the presence of PI3K therapy: with PX-866, Matrigel, Antimycin A 30 μM, Oligomycin 2.5 μM, Rotenone 4 μM, CCCP 12.5 μM. The protocol:
Tumor cell invasion: Experiments were carried out essentially as described (41). Briefly, 8 μm PET transwell migration chambers (Corning) were coated with 150 μl of 80 μg/ml Matrigel (Becton Dickinson). Tumor cells were seeded in duplicates onto the coated transwell filters at a density of 1.25×10^5 cells/well in media containing 2% FCS (FCIII, Hyclone) and media containing 20% FCS was placed in the lower chamber as chemoattractant. Cells were allowed to invade and adhere to the bottom of the plate stained in 0.5% crystal violet/methanol for 10 min, rinsed in tap water and analyzed by bright field microscopy. Digital images were batch imported into ImageJ, thresholded and analyzed with the Analyze particles function. For analysis of tumor cell invasion in 3D spheroids, tissue culture-treated 96-well plates were coated with 50 μl 1% DIFCO Agar Noble (Becton Dickinson). LN229 cells were seeded at 5,000 cells/well and allowed to form spheroids over 72 h. Spheroids were harvested, treated with PX-866 (0-10 µM) and placed in a collagen plug containing EMEM, FBS, L-Glutamine, sodium bicarbonate, and collagen type I (Gibco, 1.5 mg/ml). The collagen plug was allowed to set and 1 ml DMEM with 5% FBS was added to the top of the plug. Cell invasion was analyzed every 24 h and quantified using Image Pro Plus 7, as described^41.
Cell culture and drug treatment: Human GBM LN229, prostate adenocarcinoma PC3, lung carcinoma A549, and mouse fibroblasts NIH3T3 cells were obtained from the American Type Culture Collection (ATCC, Manassas, Va.), and maintained in culture according to the supplier's specifications. Conditioned media was prepared from exponentially growing cultures of NIH3T3 cells as previously described^41, in DMEM supplemented with 4.5 g/l D-glucose, sodium pyruvate, 10 mM HEPES and 10% FBS for 48 h. Where indicated, starvation was carried out in DMEM without glucose for 24 h. PI3K inhibitors were dissolved in DMSO at 10 mM and added to the culture media for 48 h at the following concentrations: AZD6482 at 10 μM, GCD0941 at 2 μM, BKM120 at 0.4 μM and PX-866 at 5 μM. mitoTEMPO was added to the culture media at 50-100 μM, NAC at […], Antimycin A at 30 μM, Oligomycin at 2.5 μM, Rotenone at 4 μM and CCCP at 12.5 μM. For invasions, the antioxidants, ROS scavengers, and ETC inhibitors were added to the top and bottom of the chambers at the moment of cell seeding.

Assay [2] concerns GBM organotypic cultures. The experiment in a line: Human phospho-RTK array, GBM organotypic cultures. The following applies: primary organotypic cultures, PX-866 10 μM for 48 h. It counts as cell-based. Here is the method: (§1) The position and identity of phosphorylated proteins are indicated. M, markers.
(§2) Organotypic cultures: Short-term organotypic cultures from primary patient samples were established as described^13. Briefly, precise thick tissue slices (300 μm) were obtained by vibratome serial cutting (VT1200, Leica Microsystems, Milan, Italy), and cultured in six-well plates on organotypic inserts (Millicell PICM ORG, Merck Millipore) for up to 48 h in 1 ml of Ham-F12 complete medium supplemented with vehicle (DMSO, 2.5 μl) or pan-PI3K inhibitor […] (10 μM). At the end of the experiment, one tissue slice per condition was formalin-fixed and paraffin-embedded, and further processed for morphological and immunohistochemical analysis. An additional tissue slice was embedded in OCT, and snap-frozen for molecular or immunofluorescence studies.

Assay [3] deals with GBM LN229 cells. The experiment in a line: Human phospho-RTK array, LN229 cells. It counts as cell-based. The following applies: PX-866 10 μM for 48 h.
Description: as §1

The test system of assay [4] is patient-derived glioblastoma (GBM) organotypic cultures. The experiment in a line: Kinome profiling (OpenArray real-time PCR) of GBM organotypic cultures. The following applies: PX-866 10 μM for 48 h vs vehicle. It counts as cell-based, human. The protocol: as §2
Kinome profiling and bioinformatics analysis. Transcriptional changes in the human kinome following PI3K inhibition were analyzed using OpenArray real-time PCR amplification. […] The ΔΔCt method was used to calculate fold changes between sample pairs with endogenous control Ct value calculated as average among 15 endogenous controls on the array: ALAS1, B2M, CASC3, G6PD, GAPDH, GUSB, HMBS, HPRT1, IPO8, POLR2A, PPIA, RPLP0, TFRC, UBE2D2, and YWHAZ. The p values for differential expression were calculated using fold changes of 15 endogenous controls as a null distribution.

Assay [5] deals with PC3 cells. The experiment in a line: Detection of mitochondrial superoxide in live cells (MitoSOX Red). It counts as cell-based, human. Particulars: PX-866 48 h with mitoTEMPO. The protocol: Detection of mitochondrial superoxide in live cells. The production of superoxide by mitochondria was visualized in fluorescence microscopy using the MitoSOX™ Red reagent. Briefly, 1.5×10^4 cells were grown on high optical quality 8 well μ-slides (Ibidi) and imaged with a 40× objective on a Nikon TE300 inverted time-lapse microscope equipped with a video system containing an Evolution QEi camera and a time-lapse video cassette recorder. The atmosphere was equilibrated to 37° C. and 5% CO2 in an incubation chamber. Phase contrast and TRITC (TRITC filter cube, excitation wavelength: 532-554 nm, emission wavelength: 570-613 nm) images were captured. To quantitate superoxide levels, files were imported into Image J, masks were manually created around the periphery of the cell based on the Phase image and subsequently applied to the TRITC channel to measure intensity. A minimum of 100 cells were analyzed in each independent experiment to obtain mean values.

Assay [6] has as its system PC3 cells. The experiment in a line: Mitochondrial localization by fluorescence microscopy. In kind it is cell-based, human. Particulars: for effect on mitochondrial repositioning to the cortical cytoskeleton in the presence of PI3K therapy: with PX-866, Antimycin A 30 μM, Oligomycin 2.5 μM, Rotenone 4 μM, CCCP 12.5 μM. Here is the method: Mitochondrial localization. After the indicated transfections or treatments, cells were stained with MitoTracker Red CMXRos (100 nM, 2 h) at 37° C. After fixation with 4% formalin in PBS for 15 min at room temperature, cells were permeabilized with 0.1% Triton X-100/PBS for 5 min, washed, and incubated 30 min with 1% BSA/0.3M glycine/PBS. F-actin was stained with phalloidin Alexa488 (1:1000 dilution) for 30 min at room temperature. Slides were washed and mounted in DAPI-containing Prolong Gold mounting medium (Invitrogen). At least 7 random fields were analyzed by fluorescence microscopy in a Nikon E600 microscope. Composite images were analyzed in Image J, for each cell two lamellipodia were measured to calculate infiltration index, defined as the radial distance from nucleus to furthest mitochondrial string, normalized to the radial distance from nucleus to cell border. In parallel, all cells on the 7 fields were scored into 3 categories, according to gross localization of mitochondria: polarized, pen-nuclear, and infiltrating. For cortical mitochondria quantification, a mask was manually created around the periphery of the cell based on the F-actin channel and subsequently applied to the mitochondria channel to measure intensity at the cortical region (FIG. 8H). The intensity was normalized to total mitochondria intensity per cell and background subtracted. A minimum of 20 cells were analyzed in each independent experiment to obtain mean values. For high resolution imaging of mitochondria in MFN1-depleted cells, slides were sequentially scanned for red, green, and blue fluorescence by a Leica SP5 confocal microscope with a 63× objective and a 20× digital zoom. Full cell z stacks (about 5-8 μm) were postprocessed in Leica Application Suite Advanced Fluorescence (LAS AF) to reduce noise by applying a median filter (two iterations, radius 3) and used to generate max projections.

Assay [7] has as its system PC3 cells. The experiment in a line: Focal adhesion (FA) complexes and mitochondria dual labeling. It counts as cell-based, human. The following applies: non-toxic concentrations of Gamitrinib (1 μM), 48 h. The protocol: Focal adhesion (FA) complexes and mitochondria dual labeling. Coverslides were coated with fibronectin (10 μg/ml in PBS) overnight at 4° C., rinsed in PBS and equilibrated at 37° C. with 500 μl of 10% FBS/RPMI. Cells were treated as indicated, tripsinized, washed with 10% FBS/RPMI and plated on fibronectin-coated slides, in the presence of Mitotracker Red CMXRos (100 nM). After 5 h, cells were fixed with 10% formalin in PBS for 15 min at room temperature, permeabilized with 0.1% Triton X-100/PBS for 5 min, washed, and FAs were labeled with primary antibodies diluted in 1% BSA/0.3M glycine/PBS, overnight at 4° C. Either one of the following antibodies were used: rabbit anti-pY925-FAK (1:50, Cell Signaling), mouse anti-Paxillin (1:100, Upstate). Next, slides were washed, incubated with secondary antibodies (1:500, Alexa Fluor 488 conjugated) for 1 h at room temperature, washed and mounted in DAPI-containing Prolong Gold mounting medium (Invitrogen). Slides were sequentially scanned for red, green and blue fluorescence in a Leica SP5 confocal microscope with a 100× objective. Libraries were imported into LASLite and a 3 step z-stack centered at the plane of focal adhesions (±0.5 μm) were used to generate 3D max projections.

Assay [8] deals with patient-derived GBM neurospheres. The experiment in a line: GBM neurosphere formation (number and size). It counts as cell-based, human. Particulars: Gamitrinib 5 μM plus PX-866 10 μM, 48 h. Here is the method: GBM neurospheres: Fresh GBM specimens collected from consenting patients (Division of Neurosurgery, Fondazione IRCCS Ca′ Granda, Milan, Italy) were immediately processed for the isolation of stem cell-containing neurospheres. Briefly, tissues were enzymatically processed with the Tumor Dissociation Kit (Miltenyi Biotech) at 37° C. in combination with the gentleMACS™ Dissociators (Miltenyi Biotech) until achievement of single cell suspension. Then, dissociated GBM cells were grown as spheroid aggregates (neurospheres) as previously described^43 and using the NeuroCult NS-A Proliferation media (StemCell Technologies) supplemented with 20 ng/ml EGF and 10 ng/ml bFGF (Stem Cell Technologies) according to manufacturer's protocol. When pharmacological treatment was performed, neurospheres derived from five GBM patients were mechanically dissociated, stained with PKH26 (Sigma Aldrich) as described^44, and plated at a density of 1000 cells per well in 24-well plates. The intended use of the non-toxic dye PKH26 was for live cell identification and staining. […] During this interval, neurospheres were imaged every 24 h and their size (diameter) and number was assessed by direct counting using ImageJ software. PKH26 was monitored and recorded using the TRITC fluorescent filter. Experiments were performed in duplicates. […]

Results on eight compounds are retold here after patent publication US20170000804A1, “Methods and Compositions for Inhibiting Mitochondrial Trafficking” (The Wistar Institute of Anatomy and Biology, priority 2015, published 2017).

Regarding `CC(=O)N[C@@H](CS)C(=O)O` [NAC, N-acetyl cysteine], the “effect on PI3K therapy-mediated tumor cell invasion” value in assay [1] (increasing concentrations of NAC with PX-866 48 h, Matrigel) was “had no effect”.

`C=CCN(/C=C1/C(=O)O[C@H](COC)[C@@]2(C)C1=C(O)C(=O)C1=C2[C@H](OC(C)=O)C[C@]2(C)C(=O)CC[C@@H]12)CC=C` [PX-866]: the “phosphorylation, i.e. activation of the GBM kinome” value in assay [2] and in assay [3] was “widespread phosphorylation” throughout. For the same compound, the “transcriptional changes of growth factor receptor pathways (kinome)” value in assay [4] is listed as “transcriptional upregulation of multiple growth factor receptor pathways”.

For the compound `CC1(C)CC(NC(=O)C[P+](c2ccccc2)(c2ccccc2)c2ccccc2)CC(C)(C)N1[O]` [mitoTEMPO], the “effect on tumor cell invasion mediated by PI3K inhibitors” value in assay [1] (mitoTEMPO with PX-866, Matrigel) is recorded as “did not affect”. In addition, in assay [5], the “effect on PI3K antagonist-induced mitochondrial superoxide production” value is reported as “abolished”. Further, the “effect on mitochondrial repositioning to the cortical cytoskeleton mediated by PI3K inhibitors” value in assay [6] (mitoTEMPO 50 μM with PI3K inhibitors) is “did not affect”.

Turning to Gamitrinib, the “effect on trafficking of mitochondria to pFAK-containing FA complexes in response to PI3K antagonists” value in assay [7] was “abolished”. In assay [1] (Gamitrinib with PX-866 5 μM, Matrigel), the “effect on increase in tumor cell invasion mediated by PI3K antagonists” value is “abolished the increase”. Also, the “mitochondrial distribution (polarized, perinuclear, infiltrating) with PI3K inhibitors” value in assay [6] (Gamitrinib in combination with PI3K inhibitors) is “preserved a polarized and perinuclear mitochondrial distribution”. The “effect on expansion of primary GBM neurospheres mediated by PI3K antagonists” value in assay [8] is listed as “abolished”.

Take `C=C(C)[C@H]1Cc2c(ccc3c2O[C@@H]2COc4cc(OC)c(OC)cc4[C@@H]2C3=O)O1` [Rotenone]: the “effect on tumor cell invasion in the presence of PI3K therapy” value in assay [1] is “inhibited”. For the same compound, in assay [6], the “effect on mitochondrial repositioning to the cortical cytoskeleton in the presence of PI3K therapy” value is “inhibited”.

For the compound Antimycin A, the “effect on tumor cell invasion in the presence of PI3K therapy” value in assay [1] was “inhibited”. For the same compound, the “effect on mitochondrial repositioning to the cortical cytoskeleton in the presence of PI3K therapy” value in assay [6] is recorded as “inhibited”.

For the compound `CC[C@H]1/C=C/C=C/C[C@@H](C)[C@H](O)[C@@](C)(O)C(=O)[C@@H](C)[C@H](O)[C@@H](C)C(=O)[C@@H](C)[C@H](O)[C@@H](C)/C=C/C(=O)O[C@@H]2[C@H](C)[C@H](CC1)O[C@]1(CC[C@H](C)[C@H](C[C@@H](C)O)O1)[C@H]2C` [Oligomycin], the “effect on tumor cell invasion in the presence of PI3K therapy” value in assay [1] was “inhibited”. Moreover, the “effect on mitochondrial repositioning to the cortical cytoskeleton in the presence of PI3K therapy” value in assay [6] is listed as “inhibited”.

As for “carbonyl cyanide m-chlorophenyl hydrazine [CCCP]”, the “effect on tumor cell invasion in the presence of PI3K therapy” value in assay [1] is reported as “inhibited”. The “effect on mitochondrial repositioning to the cortical cytoskeleton in the presence of PI3K therapy” value in assay [6] is reported as “inhibited”.
